We go through 1 molecule from patent US20190192458A1, “THERAPEUTIC/PROPHYLACTIC AGENT FOR GRAFT-VERSUS-HOST DISEASE, FIBROCYTE INVASION INHIBITOR, AND INHIBITOR AGAINST TEAR REDUCTION AND REDUCTION IN GOBLET CELLS” (KEIO UNIVERSITY, priority 2016, published 2019).

The structures appear in SMILES notation.

The subject of test [1] is cGVHD target organs. Description: Histological observation of cGVHD target organs (HE, Mallory, CD45 immunostaining, electron microscopy, PAS). The format is in vivo, mouse. Here is the method: Bone marrow transplantation was performed as described in the above section “Bone marrow transplantation,” and the resulting allogeneic bone marrow transplantation recipient mice were divided into two groups. One group was treated with intraperitoneal injection of PBA (10 mg/kg) (Aldrich) while the other was treated with intraperitoneal injection of a solvent vehicle⋅phosphate buffered saline (PBS) (pH 7.4). The allogeneic bone marrow transplantation recipients received once-daily administration of PBA or the solvent vehicle from Day 10 to Day 27 after bone marrow transplantation. They were sacrificed on Day 28 after bone marrow transplantation.
cGVHD-affected organs (exorbital lacrimal gland, proximal portion of the small intestine, dorsal skin, liver, salivary gland, lung, large intestine, and eyes) were analyzed herein.
The exorbital lacrimal gland, the proximal part of the small intestine, dorsal skin, the liver, the salivary gland, the lung, the large intestine, and the eyes were collected from transplant recipients at 3 or 4 weeks after bone marrow transplantation. Subsequently, these samples were fixed with 10% neutral buffered formalin, and then each embedded in paraffin. The resulting paraffin blocks were each cut into 7-μm thick sections, and then stained with • (1) hematoxylin and eosin; • (2) Malory trichrome staining (Hopwood J, Fixation and fixtative. In: Bancroft J D, Stevens A, eds., Theory and Practice of Histological Techniques, 4th ed, Edinburgh: Churchill-Livingstone, 1996:23-46; Anderson G, Gordon K, Tissue processing, microtomy and paraffin sections. In: Bancroft J D, Stevens A, eds. T. Theory and Practice of Histological Techniques, 4th ed, Edinburgh: Churchill-Livingstone, 1996:47-68); and • (3) antibody.
For immunohistochemical assay, paraffin was first removed, and antigens were then collected by either one of the following two antigen collecting methods. • (A) For staining sections with CD45 antibody (30-F11, BD Pharmingen), the sections were immersed in an antigen retrieval solution (Target Retrieval Solution; Dako), and then boiled for 10 minutes in a microwave oven. • (B) For multistaining with CD68 (FA-11, Abd Serotec) and CHOP (F-168, Santa Cruz Biotechnology, Inc.), sections were washed with an antigen retrieval solution (HistoVT One; Nacalai Tesque, Inc.), and then heated in a water bath at 90° C. for 40 minutes. Next, the sections were blocked with 10% normal goat blood serum, and antigens in the tissue sections were then allowed to react with the primary antibodies at 4° C. overnight. Subsequently, the sections were treated with fluorophore-labelled secondary antibodies at room temperature (for example, 1 to 30° C.) for 45 minutes, and then mounted with an anti-fading mounting medium (Fluorescent Mounting Medium; Dako).
Fluorescence images were captured under an LSM confocal microscope (Carl Zeiss). For counting CD45^+ cells, 5 randomly selected regions per section were photographed at a magnification of ×200, and the number of CD45^+ cells in each image was then determined. As secondary antibodies, used were goat anti-mouse IgG (H+L) secondary antibody conjugated with Alexa Fluor 488 (Molecular Probes) and goat anti-rat IgG (H+L) secondary antibody conjugated with Alexa Fluor 568 (Molecular Probes). For isotype controls, rat IgG2b, κ (eB149/10H5, eBioscience, Inc.), rat IgG2a (54447, R&D Systems, Inc.), and rabbit IgG (Cell Signaling Technology, Inc.) were used for CD45, CD68, and CHOP, respectively.
Transmission electron microscopy was performed in accordance with a standard protocol. Tissues were collected from a mouse lacrimal gland and small intestine, and immediately fixed with 2.5% glutaraldehyde in 0.1 M phosphate buffer (pH 7.4) at 4° C. for 4 hours, and then washed 3 times with 0.1 M phosphate buffer. Subsequently, the samples were fixed again with 2% osmium tetroxide, and dehydrated with a gradient series of ethanol and 100% propylene oxide, and then embedded in epoxy resin. […]

Test [2] relates to CTGF. Kind of test: Immunoblot analysis of fibrosis marker CTGF in organs. The format is in vivo, mouse. The note with it: PBA-treated vs vehicle-treated organs, n=4, P<0.05, FIG. 5B, 5C. As to the method:
Bone marrow transplantation was performed as described in the above section “Bone marrow transplantation,” and the resulting allogeneic bone marrow transplantation recipient mice were divided into two groups. One group was treated with intraperitoneal injection of PBA (10 mg/kg) (Aldrich) while the other was treated with intraperitoneal injection of a solvent vehicle⋅phosphate buffered saline (PBS) (pH 7.4). The allogeneic bone marrow transplantation recipients received once-daily administration of PBA or the solvent vehicle from Day 10 to Day 27 after bone marrow transplantation. They were sacrificed on Day 28 after bone marrow transplantation. […]
Proteins of interest were visualized by either one of the following two methods. (1) A target protein was colorimetrically detected using a BCIP/NBT substrate (Promega). […]
The intensity of the resulting protein band was analyzed using image processing software ImageJ. […]
With regard to the secondary antibody, (1) either AP-conjugated anti-mouse IgG antibody (Promega) or AP-conjugated anti-rabbit IgG antibody (Promega) was used when protein bands were chromogenically visualized; (2) HRP-conjugated anti-mouse antibody (Thermo Fisher Scientific) or HRP-conjugated anti-rabbit antibody (Thermo Fisher Scientific) was used when target proteins were detected by ECL.

Setting [3] is: PBA-treated vs vehicle-treated eye, FIG. 4-1A.

As to `O=C(O)CCCc1ccccc1` [PBA, 4-phenyl-n-butyric acid], in test [1] (PBA-treated lacrimal gland and small intestine vs vehicle-treated, FIG. 4-2D), the “electron microscopy: hypertrophied endoplasmic reticula, cell fragments, damaged mitochondria, destroyed small villi, damaged adjacent tissues” value was “not observed”. Further, the “goblet cells in conjunctiva epithelium (PAS staining)” value in test [1] (PBA-treated vs vehicle-injected eye, n=5, P<0.001, FIG. 4-2F, 4-2G) is given as “more goblet cells”. Moreover, the “goblet cells in small intestine (PAS staining)” value in test [1] (PBA-treated vs vehicle-injected small intestine, n=3, P<0.001, FIG. 4-2F, 4-2G) was “more goblet cells”. For the same molecule, in test [1] (setting [3]), the “conjunctiva epithelium thinning and damage (HE staining)” value is “thinning and damage were observed in the vehicle-treated conjunctiva epithelium in contrast with the PBA-treated conjunctiva epithelium”; the “meibomian gland (HE staining)” value was “the meibomian gland of the vehicle-treated eye was decreased and contracted as compared with the PBA-treated meibomian gland”. The “infiltration of inflammatory cells (HE staining)” value in test [1] (PBA-treated vs vehicle-treated organs, FIG. 4-1A) was “inhibited”. For the same molecule, the “cGVHD-induced systemic fibrosis (Mallory staining)” value in test [1] (PBA-treated vs vehicle-treated organs, FIG. 4-1C) is given as “substantially inhibited”. Further, the “numbers of inflammatory cells (CD45+ cells)” value in test [1] (PBA-treated vs vehicle-treated organs, immunostaining and counting, n=3, FIG. 4-2E) is “considerably smaller”. Also, the “skin thickness, fat tissues, density of collagen bundles (HE staining)” value in test [1] (PBA-treated vs vehicle-treated skin, FIG. 4-1A) is “the vehicle-treated skin became thickened, lost fat tissues, and increased the density of collagen bundles in contrast with the PBA-treated skin”. Moreover, in test [1] (PBA-treated vs vehicle-treated small and large intestines, FIG. 4-1A), the “intestinal villi of small and large intestines (HE staining)” value is listed as “not impaired”. Besides, the “structures of the intestinal and conjunctival mucous membranes (PAS staining)” value in test [1] (after systemic injection of PBA) is given as “remained intact”. In addition, the “CTGF expression in organs” value in test [2] is given as “overexpressed in the vehicle-treated organs, but not in the PBA-treated organs”.
